Experimental data as given in the NIST ThermoML archive (doi:10.1021/acs.jced.5b00105).

Assay: refractive index (Na D-line) (dimensionless); xn = mol fraction of the nth substance listed
Details: 100 kPa, Liquid

CC1CCCCC1 [methylcyclohexane] + CC(C)CC(C)(C)C
refractive index
Details	293.15 K	298.15 K	303.15 K	308.15 K	313.15 K	318.15 K	323.15 K
x1 = 0.0999	–	1.3912	–	1.3876	–	1.3811	1.3789
x1 = 0.1012	1.395	–	1.3903	–	1.3861	–	–
x1 = 0.1999	–	1.3938	–	1.3902	–	1.3844	1.3819
x1 = 0.2003	1.3975	–	1.3929	–	1.3887	–	–
x1 = 0.2997	–	1.3966	–	1.3942	–	1.3871	1.3846
x1 = 0.3001	1.4	–	1.3958	–	1.3916	–	–
x1 = 0.4	–	1.3997	–	1.3962	–	1.3898	1.3869
x1 = 0.4019	1.403	–	1.3988	–	1.3947	–	–
x1 = 0.5	–	1.4028	–	1.3998	–	1.393	1.3905
x1 = 0.5008	1.406	–	1.4018	–	1.3978	–	–
x1 = 0.6	1.409	1.4059	1.4049	1.4029	1.401	1.3962	1.3938
x1 = 0.6998	1.4125	–	1.4082	–	1.4043	–	–
x1 = 0.7001	–	1.4092	–	1.4064	–	1.3993	1.397
x1 = 0.7999	–	1.4127	–	1.4097	–	1.403	1.4
x1 = 0.8	1.4158	–	1.4117	–	1.4077	–	–
x1 = 0.9	1.4195	1.4161	1.4153	1.4132	1.4114	1.4066	1.4039
x1 = 1	1.4232	1.4199	1.419	1.4168	1.415	1.4102	1.4078

CCC1CCCCC1 [ethylcyclohexane] + CC(C)CC(C)(C)C
refractive index
Details	293.15 K	298.15 K	303.15 K	308.15 K	313.15 K	318.15 K	323.15 K
x1 = 0.1	1.3959	1.3926	1.3918	1.3889	1.3877	1.3826	1.3805
x1 = 0.1999	–	1.3965	–	1.3932	–	1.3867	1.3849
x1 = 0.2	1.4005	–	1.3964	–	1.3924	–	–
x1 = 0.3	–	1.4004	–	1.3975	–	1.3912	1.3891
x1 = 0.3003	1.4043	–	1.4003	–	1.396	–	–
x1 = 0.3997	1.4084	–	1.4041	–	1.4003	–	–
x1 = 0.4	–	1.4046	–	1.4015	–	1.3954	1.3931
x1 = 0.5	–	1.4086	–	1.4059	–	1.3996	1.3975
x1 = 0.5002	1.4123	–	1.4084	–	1.4047	–	–
x1 = 0.6001	–	1.4129	–	1.4098	–	1.4037	1.4015
x1 = 0.6005	1.4167	–	1.4125	–	1.4087	–	–
x1 = 0.7002	1.4207	–	1.4169	–	1.4132	–	–
x1 = 0.7004	–	1.4172	–	1.4146	–	1.4081	1.4059
x1 = 0.8001	–	1.4214	–	1.4186	–	1.4118	1.4097
x1 = 0.8003	1.4254	–	1.4211	–	1.4175	–	–
x1 = 0.8994	–	1.4256	–	1.4228	–	1.4161	1.4144
x1 = 0.8997	1.4295	–	1.4253	–	1.4216	–	–
x1 = 1	1.4337	1.4301	1.4295	1.4278	1.4259	1.4204	1.4187
